Where no end group is shown, it is not given here.
Columns and labels:
[1] = target: T1, GLP-1 receptor (Rattus norvegicus, UniProt P32301); experiment: Competitive binding of peptide to the GLP-1 receptor in RINm5F cell plasma membranes (125I GLP-1); conditions: read-out: GLP1 RIN IC50
T1 construct: endogenous in cells; host or cells: RINm5F cells
T1 sequence (P32301 22-463): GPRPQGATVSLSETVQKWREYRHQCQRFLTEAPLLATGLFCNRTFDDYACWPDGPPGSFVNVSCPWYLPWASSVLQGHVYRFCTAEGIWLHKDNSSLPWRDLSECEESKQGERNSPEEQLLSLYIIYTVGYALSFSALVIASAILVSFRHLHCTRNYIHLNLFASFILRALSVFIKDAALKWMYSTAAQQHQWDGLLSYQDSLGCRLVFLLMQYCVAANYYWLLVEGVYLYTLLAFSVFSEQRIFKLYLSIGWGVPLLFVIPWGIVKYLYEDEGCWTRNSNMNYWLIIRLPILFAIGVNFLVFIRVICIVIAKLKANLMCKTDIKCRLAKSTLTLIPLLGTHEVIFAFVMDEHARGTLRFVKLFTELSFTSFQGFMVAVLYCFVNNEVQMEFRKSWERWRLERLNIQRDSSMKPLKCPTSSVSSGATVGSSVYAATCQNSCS
Description: Flasks of RINm5F cells were washed with PBS, scraped in 20 mM Hepes-1 mM EDTA-250 mM sucrose buffer containing protease inhibitors (HES) and homogenized in a dounce homogenizer followed by repeated resuspension through a 23 gauge needle. Unbroken cells and nuclei were removed by centrifugation at 500×g for 5 minutes. The pellet was resuspended in HES buffer using a 23 gauge needle and the centrifugation was repeated. The supernatants from the two spins were combined and centrifuged at 40,000×g for 20 min. The resulting plasma membrane pellet was resuspended in HES buffer using a 23 gauge needle followed by a 25 gauge needle. Membranes were stored at −80° C. until use.
Competitive binding of some polypeptides of the invention to RINm5F cell plasma membranes was measured as follows. Ninety-six-well GF/C filtration plates (Millipore, Bedford, Mass.) were blocked with 0.3% PEI for at least one hour and washed twice with binding buffer consisting of 20 mM Tris, 2 mM EDTA, pH 7.5, 1 mg/ml BSA, and 1 mg/ml bacitracin. […] The plates were dried, scintillant was added to each well, and cpm per well determined using a Wallac Microbeta counter.

[2] = target: T1, GLP-1 receptor; experiment: Peptide signaling through GLP-1 receptor, cAMP scintillation proximity assay in RINm5F cells; format: cell-based; conditions: for GLP1 Relative Potency: EC50 of native GLP-1 (7-36) divided by EC50 of polypeptide x 100, cAMP in RINm5F cells
Description: The media was removed and the cells were washed twice with PBS. […] For assay of peptides conjugated with fatty acid, the BSA was omitted from the incubation buffer. The incubation buffer was removed, and the cells were lysed in the lysis reagent provided with the cAMP Scintillation Proximity Assay (SPA) direct screening assay system (Amersham Pharmacia Biotech Inc, Piscataway, N.J.). The amount of cAMP (in pmol) present in the lysates was determined following instructions provided with this kit.
The amount of cAMP (in pmol) produced at each concentration of peptide was plotted and analyzed by nonlinear regression using Prizm software to determine the EC50 for each peptide.

[3] = target: T2, glucagon receptor (Rattus norvegicus, UniProt P30082); experiment: Competitive binding of peptide to the glucagon receptor in rat liver plasma membranes (125I glucagon)
T2 construct: glucagon receptor present in the plasma membranes isolated from rat liver; from tissue; host or cells: rat liver plasma membranes
Description: The wet weight of the livers was determined and the tissue minced in 5 volumes of ice cold TES buffer and a slurry prepared using a polytron. All buffers and spins were kept at 4° C. The slurry was further homogenized using three strokes of a handheld dounce homogenizer. The homogenate was passed through several layers of cheesecloth and spun at 25,000×g for 10 minutes. Pellets were homogenized in 22.1 ml TES buffer using 10 strokes of a handheld dounce homogenizer. Twenty-seven point nine milliliters of 2.4 M sucrose in TE was added and mixed well. The homogenate was distributed among several tubes, and each tube was overlaid with 7 ml of TES buffer. The tubes were spun at 120,000×g for 60 minutes. The plasma membranes were removed from the interface that formed during the spin, diluted in TES and concentrated using a 15 minute spin at 200,000×g. The resulting pellet was again homogenized in 9.8 ml TES buffer, combined with 10.3 ml 2.4M sucrose, overlaid with 7 ml TES, and centrifuged at 180,000×g for 30 min. […] The final pellet was resuspended in TES. Plasma membranes were stored at −80° C. until ready for use.
Competitive binding of some polypeptides of the invention to rat liver plasma membranes was measured as follows. Ninety-six-well GF/C filtration plates (Millipore, Bedford, Mass.) were blocked with 0.1% PEI for at least one hour and washed twice with binding buffer consisting of 20 mM Tris, 2 mM EDTA, pH 7.5, 1 mg/ml BSA, and 1 mg/ml bacitracin. […] The plates were dried, scintillant was added to each well, and cpm per well determined using a Wallac Microbeta counter.

[4] = system: rat hepatocytes; experiment: Glucose release from rat hepatocytes (inhibition of glucagon mediated glucose production); format: cell-based; conditions: 1 nM glucagon, 100 nM peptide, 3 trials
Description: Hepatocytes were isolated according to a modified procedure of Berry and Friend (J. Cell. Biol. 43:506, 1969). A fed male Wistar rat was anesthetized with sodium pentobarbital (55 mg/kg, i.p.). The rat was placed on its back on the tray of the liver perfusion apparatus (37° C.), and its limbs were secured with laboratory tape. The ventrical surface was cleaned with 70% alcohol, and the abdominal cavity was opened with scissors to expose the liver, portal vein, hepatic artery and the posterior vena cava. Ligatures were placed loosely around the three vessels. A cannula was inserted into the portal vein and was secured with the ligature. […] An aliquot of cells was diluted with buffer, stained with 0.4% Trypan Blue and counted. […]
Rat hepatocytes were added into a flat bottom 96 well plate (2×10^5/100 μl/well) and pre-incubated in a 37° C. incubator with constant shaking and under 95% O2/5% CO2 flow for 10 minutes. […] The resulting supernatant was analyzed for glucose with hexokinase and glucose-6-phosphate dehydrogenase (Methods of Enzymatic Analysis, H. U. Bermeyer, Ed., Academic Press) and the A340 read on a fMAX plate reader (Molecular Devices, Sunnyvale, Calif.).
Glucose output was calculated after subtracting the amount of glucose produced in the unstimulated hepatocytes from each data point and the percent inhibition was calculated.

[5] = system: perfused rat islets; experiment: Insulin secretion by perfused rat islets; format: cell-based; conditions: 50 nM peptide, 8 mM glucose
Description: Sprague Dawley rats (275-320 g) were used as the source of donor islets. Briefly, the pancreas was filled with 10 ml of cold reconstituted Liberase RI (Boehringer Manheim), harvested and incubated with additional 5 ml enzyme solution in water bath for 30 minutes. Tissue suspension was washed twice with cold 10% FBS/Hanks buffer (Gibco), resuspended in 8 ml 25% ficoll (Sigma) and then layered with 5 ml each of 23%, 20% and 11% ficoll. The islets in the 20% layer after centrifugation were removed, washed twice with cold 10% FBS/Hank buffer and resuspended in 10% FBS/RPMI 1640 media (Sigma).
Insulin secretion of perfused rat islets mediated by some peptides of the invention was measured as follows. The bi-phasic responses of insulin release stimulated by these polypeptides were tested by islet perfusion. Fifty islets were loaded in the perifusion chamber and perifused with HEPES-KRB containing 3 mM glucose at 37° C. After 60 min, islets were exposed to buffer containing 8 mM glucose with or without peptide (50 nM) and perifused for another 30 min. Fractions of perifusate were collected at 1 or 5 minute intervals for insulin determination. Insulin was measured using an ELISA kit (Alpco Diagnostics, Windham, N.H.).

[6] = system: glucagon-mediated elevation in blood glucose; experiment: Glucagon-stimulated glucose production in fed Wistar rats; format: in vivo, rat; conditions: iv, 0.3 nmol/kg glucagon plus 1 nmol/kg peptide
Description: The anesthesia was withdrawn and the conscious rats were tail-bled again after 10, 20 and 30 min.
Glucose inhibition was determined by analyzing the area under the glucose curve after subtracting the basal glucose level (dAUC).

[7] = Intraperitoneal glucose tolerance testing (IPGTT) in rats or mice; format: in vivo; conditions: ipGTT in mice 3 hours post dosing with 100 μg/kg peptide
Description: Blood glucose levels during intraperitoneal glucose tolerance testing in rats or mice by some polypeptides of the invention were measured as follows. The in vivo activity of the polypeptides of the invention when administered subcutaneously was examined in rats or mice. Rats or mice fasted overnight were given a subcutaneous injection of control or peptide (100 μg/kg). Basal blood glucose was measured prior to administration of peptides or three or 17 hours after administration of derivatized peptides, and the rats or mice were given 2 g/kg of glucose intraperitoneally. Blood glucose was measured again after 15, 30 and 60 minutes in rats or 30 and 60 minutes in mice.

[8] = system: glucagon-mediated elevation in blood glucose; experiment: Glucagon-stimulated glucose production in fed Balb/C mice; format: in vivo
Description: The change in glucose over the 15 minutes was calculated for each mouse.

[9] = system: dispersed rat islet cells; experiment: Insulin secretion from dispersed rat islet cells; format: cell-based; conditions: 50 nM peptide, fold over control
Description: Insulin secretion of dispersed rat islets mediated by a number of peptides of the invention was measured as follows. Islets of Langerhans were isolated from SD rats (200-250 g) through a digestion procedure using collagenase. Dispersed islet cells were prepared through treatment with trypsin, seeded into 96 V-bottom plates and pelleted. Cells were cultured overnight in media. Media was aspirated and the cells were pre-incubated with Krebs-Ringer-HEPES buffer containing 3 mM glucose for 30 minutes at 37° C. Pre-incubation buffer was removed and cells were stimulated with Krebs-Ringer-HEPES buffer containing the appropriate glucose concentration (e.g., 8 mM), with and without peptides for an appropriate time at 37° C. […] A portion of supernatant was removed and its insulin content was measured by SPA. The results are expressed as fold over control (FOC). At a concentration of 50 nM, the polypeptide having an amino acid sequence shown in SEQ ID NO:27 increased insulin secretion from dispersed islet cells approximately 3-fold.

T2 sequence (P30082 27-485): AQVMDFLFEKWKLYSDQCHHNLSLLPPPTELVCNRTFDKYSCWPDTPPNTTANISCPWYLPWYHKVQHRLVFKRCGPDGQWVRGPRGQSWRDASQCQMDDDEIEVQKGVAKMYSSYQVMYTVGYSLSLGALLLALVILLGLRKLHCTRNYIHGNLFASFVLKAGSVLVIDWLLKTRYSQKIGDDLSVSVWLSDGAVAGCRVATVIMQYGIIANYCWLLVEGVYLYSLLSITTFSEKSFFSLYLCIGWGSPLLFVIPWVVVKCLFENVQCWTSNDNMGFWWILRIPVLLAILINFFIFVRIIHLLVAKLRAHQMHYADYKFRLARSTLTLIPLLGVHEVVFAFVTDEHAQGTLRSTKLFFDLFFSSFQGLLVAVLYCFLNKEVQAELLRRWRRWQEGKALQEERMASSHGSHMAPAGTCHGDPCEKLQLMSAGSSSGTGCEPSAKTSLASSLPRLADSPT

HSQGTFTSDYAKYLDARRAKEFIAWLVKGR-NH2 [G27]
IC50 [1]: 2.2 nM
GLP1 Relative Potency [2]: 13.4%
Emax ([2]; RIN-m5F, read-out: % GLP1 max): 98.1%
IC50 [3]: 69.3 nM
Inhibition of glucagon mediated glucose production [4]: 47%
Increase of insulin secretion from perfused islets [5]: approximately 2 fold
Inhibition of glucagon-mediated elevation in blood glucose (dAUC) [6]: 63%

HSQGTFTSDYARYLDARRAREFIKWLVRGRC(43kD) (HSQGTFTSDYARYLDARRAREFIKWLVRGRC(PEG 43kD); listed as Homo sapiens) [G4185, 43kD PEG linked to the cysteine residue]
In vivo Decrease IpGTT AUC [7]: 36%
GLP1 Relative Potency [2]: 0.7%
% GLP1 max ([2]; maximal cAMP activity relative to native GLP-1 (7-36), RINm5F cells): 98.3%
% Inhibition ([8]; Balb/C mice, 10 μg/kg glucagon, 100 μg/kg peptide sc 17 h before): 31%
Glucose 15 min ([8]; Balb/C mice, 15 min after 10 μg/kg iv glucagon): 150 mg/dL
Glucose Delta (15 − 0) ([8]; Balb/C mice, change over 15 min after glucagon): 75 mg/dL
Glucose -Vehicle delta ([8]; Balb/C mice, delta minus vehicle group delta): 59 mg/dL
% of 10 μg/kg Glucagon ([8]; Balb/C mice, glucose change relative to glucagon alone): 69%
Glucose 0 min ([8]; Balb/C mice, just prior to 10 μg/kg iv glucagon, peptide 100 μg/kg sc 17 h before): 75 mg/dL
In vivo % Decrease glucagon stimulated blood glucose ([8]; glucagon challenge in mice 17 hours post dosing with 100 μg/kg peptide): 31%
Increase of insulin secretion from dispersed islet cells [9]: approximately 3 fold

CC[C@H](C)[C@H](NC(=O)[C@H](Cc1ccccc1)NC(=O)[C@H](CCC(=O)O)NC(=O)[C@H](CCCCN)NC(=O)[C@H](C)NC(=O)[C@H](C)NC(=O)[C@H](CCC(N)=O)NC(=O)CNC(=O)[C@H](CCC(=O)O)NC(=O)[C@H](CC(C)C)NC(=O)[C@H](Cc1ccc(O)cc1)NC(=O)[C@H](CO)NC(=O)[C@H](CO)NC(=O)[C@@H](NC(=O)[C@H](CC(=O)O)NC(=O)[C@H](CO)NC(=O)[C@@H](NC(=O)[C@H](Cc1ccccc1)NC(=O)[C@@H](NC(=O)CNC(=O)[C@H](CCC(=O)O)NC(=O)[C@H](C)NC(=O)[C@@H](N)Cc1c[nH]cn1)[C@@H](C)O)[C@@H](C)O)C(C)C)C(=O)N[C@@H](C)C(=O)N[C@@H](Cc1c[nH]c2ccccc12)C(=O)N[C@@H](CC(C)C)C(=O)N[C@H](C(=O)N[C@@H](CCCCN)C(=O)NCC(=O)N[C@@H](CCCNC(=N)N)C(N)=O)C(C)C [GLP-1, reference compound]
Increase of insulin secretion from perfused islets [5]: approximately 2 fold
